Experimental data as given in PubChem BioAssay (NCI).
“And” between values parts separate entries of the source, which are not always exact repeats. Identical values can stand only once.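 Compound exposure: 48 hours, 5 concentrations, 96-well plates. GI50 = concentration required for 50% inhibition of growth. TGI: total growth inhibition.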

What was measured:
Experiment in all cases: DTP human tumour cell line panel, 48 h
HT29 colon = test system: HT29 colon
HS 578T breast = test system: HS 578T breast
T-47D breast = test system: T-47D breast
LOX IMVI melanoma = test system: LOX IMVI melanoma
HCT-15 colon = test system: HCT-15 colon
HCT-116 colon = test system: HCT-116 colon
SNB-19 CNS = test system: SNB-19 CNS
HCC-2998 colon = test system: HCC-2998 colon
SF-295 CNS = test system: SF-295 CNS
OVCAR-4 ovarian = test system: OVCAR-4 ovarian

| SMILES | GI50 (HT29 colon) | TGI (HT29 colon) | GI50 (HS 578T breast) | TGI (HS 578T breast) | GI50 (T-47D breast) | TGI (T-47D breast) [µM] | GI50 (LOX IMVI melanoma) | TGI (LOX IMVI melanoma) | GI50 (HCT-15 colon) | TGI (HCT-15 colon) [µM] | GI50 (HCT-116 colon) | TGI (HCT-116 colon) | GI50 (SNB-19 CNS) | TGI (SNB-19 CNS) [µM] | GI50 (HCC-2998 colon) | TGI (HCC-2998 colon) | GI50 (SF-295 CNS) | TGI (SF-295 CNS) | GI50 (OVCAR-4 ovarian) | TGI (OVCAR-4 ovarian) [µM] |
| --- | --- | --- | --- | --- | --- | --- | --- | --- | --- | --- | --- | --- | --- | --- | --- | --- | --- | --- | --- | --- |
| COc1ccc(-c2nn(-c3cccc(Cl)c3)cc2C2CC(c3ccccc3)=NN2C(C)=O)cc1 (configuration not stated) | 5.49 µM | > 100 µM | 2.81 µM | 20.1 µM | 8.53 µM | > 100 | 11 µM | > 100 µM | > 100 µM | > 100 | 4.2 µM | > 100 µM | 17 µM | > 100 | > 100 µM | > 100 µM | 5.96 µM | 40.6 µM | 3.38 µM | 29.2 |
| COc1ccc(NC(=O)Nc2n[nH]c3ccccc23)cc1 | > 100 µM | > 100 µM | > 100 µM | > 100 µM | > 100 µM | > 100 | > 100 µM | > 100 µM | > 100 µM | > 100 | > 100 µM | > 100 µM | > 100 µM | > 100 | > 100 µM | > 100 µM | > 100 µM | > 100 µM | > 100 µM | > 100 |
| CCCCCCCCCCCCCC(=S)NCCCC[C@H](NC(=O)OCc1ccccc1)C(=O)Nc1ccccc1 | 5.25 µM | > 100 µM | 4.31 µM | > 100 µM | 4.52 µM | > 100 | 5.3 µM | > 100 µM | 3.52 µM | > 100 | 3.77 µM | > 100 µM | 4.27 µM | > 100 | 5.69 µM | > 100 µM | 3.4 µM | 72.1 µM | 3.9 µM | > 100 |
| COc1cccc(/C=C/C(=O)c2cc3c(N)c(C(=O)Nc4ccccc4C)sc3nc2C)c1 | 1.11 µM | 2.58 µM | 1.63 µM | > 50 µM | 1.15 µM | 3.63 | 0.875 µM | 1.59 µM | 0.854 µM | 1.87 | 0.822 µM | 1.5 µM | 1.07 µM | 2.68 | 0.955 µM | 1.87 µM | 2.26 µM | 15.9 µM | 2.38 µM | 11.2 |
| CC(C)(C)OC(=O)NC(Cc1ccccc1)C(=O)OCN1C(=O)C2C3C=CC(C2C1=O)C1C2C(=O)N(COC(=O)C(Cc4ccccc4)NC(=O)OC(C)(C)C)C(=O)C2C31 (configuration not stated) | – | > 100 µM | – | 54.3 µM | – | > 100 | – | > 100 µM | – | > 100 | – | > 88.5 µM | – | > 82.7 | – | > 100 µM | – | > 100 µM | – | > 100 |
| CC(=O)Nc1cccc(-n2c(=O)n(C3CC3)c(=O)c3c(Nc4ccc(I)cc4F)n(C)c(=O)c(C)c32)c1 | < 0.01 µM and 0.00172 µM | 15.9 µM and > 10 µM | 4.06 µM and 4.64 µM | 43.8 µM and > 10 µM | 14.9 µM and > 10 µM | > 77 | < 0.0122 µM and 0.0262 µM | 5.46 µM and > 10 µM | 0.65 µM and 0.864 µM | > 75.3 | < 0.01 µM and 0.00986 µM | 12.5 µM and > 10 µM | 5.11 µM and > 2.09 µM | > 100 | < 0.01 µM and 0.0024 µM | 15.7 µM and > 10 µM | 7.21 µM and > 10 µM | 59.4 µM and > 10 µM | 0.515 µM and 2.65 µM | > 100 |
| COc1cc(-n2cc(-c3ccc(Cl)c(Cl)c3)nc2SCc2ccccc2)cc(OC)c1OC | > 100 µM | > 100 µM | > 100 µM | > 100 µM | > 100 µM | > 100 | > 100 µM | > 100 µM | > 100 µM | > 100 | 80.7 µM | > 100 µM | > 100 µM | > 100 | > 100 µM | > 100 µM | > 100 µM | > 100 µM | > 100 µM | > 100 |
| CC(C)(C)c1cc(O)c(O)c(C(C)(C)C)c1 | 2.9 µM | 6.71 µM | 3.9 µM | 26.7 µM | 2.36 µM | 5.02 | 3.05 µM | 12.9 µM | 3.38 µM | 11.2 | 1.83 µM | 3.41 µM | 7.3 µM | 20.3 | 4.44 µM | 16.6 µM | 3.53 µM | 14.4 µM | 2.31 µM | 5.84 |
| CNC(=O)c1ccccc1CC1(O)c2ccccc2Oc2ccccc21 | 9.73 µM | 51.1 µM | 16.6 µM | 57.1 µM | 21.5 µM | > 100 | 29.1 µM | > 100 µM | 12.7 µM | > 100 | 21.8 µM | > 100 µM | 24.6 µM | > 100 | 29 µM | 91.3 µM | 20.7 µM | > 100 µM | 27.8 µM | > 100 |
| CN=C(N)N/N=C(\c1ccccc1)c1ccc(Br)cc1 | 0.322 µM | 1.72 µM | 0.38 µM | 5.37 µM | 2.96 µM | 26.7 | 0.494 µM | 2.97 µM | 0.306 µM | 7.24 | 0.309 µM | 3.3 µM | 0.6 µM | 13.9 | 0.38 µM | 1.37 µM | 0.287 µM | 1.48 µM | 0.713 µM | 15.2 |
| COC(=O)C(=O)CC(=O)CCn1ncc(Cl)c(Cl)c1=O | – | 15 µM | 27.3 µM | 87.5 µM | 21.2 µM | 40.2 | – | 15.3 µM | – | 15.7 | – | 23.7 µM | – | 32.5 | – | 13.1 µM | – | 23 µM | – | 6.61 |
| C[C@@H]1CC[C@@H]2[C@@H]1[C@H](OC(=O)/C=C/c1ccccc1)[C@]1(c3ccccc3)C[C@@H](OC(=O)CO)[C@@]2(C)O1 | 15.9 µM | 37.8 µM | 0.112 µM | 0.708 µM | 6.67 µM | 21.2 | 13.9 µM | 27.2 µM | 12.7 µM | 32.7 | 12.7 µM | 27.6 µM | 20.2 µM | 55.9 | 14.6 µM | 29 µM | 12.8 µM | 32.3 µM | 12.3 µM | 27.3 |
